Data reported in patent publication US11643437B2, “Tandem repeat cancer-targeting peptides for molecular conjugation or engineering and uses thereof in cancer theranostics” (Chang Gung Memorial Hospital, priority 2020, dated 2023).
Where no end group is shown, it is not given here.

B1: F4P6-BsAb: bispecific antibody-like knob-and-hole heterodimer, anti-CD3 scFv plus F4P6-TR-CTP on both Fc C-termini, SEQ ID NO 12 and 14 (protein)
chain 1: MGGRRVRWEVYISRAGYVNRQIAWRRHHRSATMGWSLILLFLVAVATRVLSQVQLVQSGAEVKKPGASVKVSCKASGYTFTRYTMHWVRQAPGQGLEWIGYINPSRGYTNYNQKFKDKATLTTDKSISTAYMELSRLRSDDTAVYYCARYYDDHYTLDYWGQGTLVTVSSGGGGSGGGGSGGGGSEIVLTQSPATLSLSPGERATLSCSASSSVSYMNWYQQKPGQAPRRWIYDTSKLASGIPARFSGSGSGTSYTLTISSLEPEDFAVYYCQQWSSNPFTFGQGTKVEIKRSGGGGSGGGGSGGGGSTGTHTCPPCPAPELAGAPSVFLFPPKPKDTLMISRTPEVTCVVVDVSHEDPEVKFNWYVDGVEVHNAKTKPREEQYNSTYRVVSVLTVLHQDWLNGKEYKCKVSNKALPAPIEKTISKAKGQPREPQVCTLPPSREEMTKNQVSLSCAVKGFYPSDIAVEWESNGQPENNYKTTPPVLDSDGSFFLVSKLTVDKSRWQQGNVFSCSVMHEALHNHYTQKSLSLSPGKGGGGSGGGGSGGGGSRPFLPFLPY
chain 2: MGGRRVRWEVYISRAGYVNRQIAWRRHHRSATMGWSLILLFLVAVATRVLSTGTHTCPPCPAPELAGAPSVFLFPPKPKDTLMISRTPEVTCVVVDVSHEDPEVKFNWYVDGVEVHNAKTKPREEQYNSTYRVVSVLTVLHQDWLNGKEYKCKVSNKALPAPIEKTISKAKGQPREPQVYTLPPCREEMTKNQVSLWCLVKGFYPSDIAVEWESNGQPENNYKTTPPVLDSDGSFFLYSKLTVDKSRWQQGNVFSCSVMHEALHNHYTQKSLSLSPGKGGGGSGGGGSGGGGSRPFLPFLPY

Key:
[1] = target: peptide-binding domain of GRP78 (GRP78-PBD, amino acids 421-639) (Homo sapiens, UniProt P11021); assay: Surface plasmon resonance, GRP78-PBD binding to chip-bound N-terminal biotin-labeled CTPs/TR-CTPs; conditions: N-terminal GGGGS extension, peptide immobilized on streptavidin chip; for Kd: read-out: Dissociation constant KD
Chain of peptide-binding domain of GRP78 (GRP78-PBD, amino acids 421-639) (P11021 421-639): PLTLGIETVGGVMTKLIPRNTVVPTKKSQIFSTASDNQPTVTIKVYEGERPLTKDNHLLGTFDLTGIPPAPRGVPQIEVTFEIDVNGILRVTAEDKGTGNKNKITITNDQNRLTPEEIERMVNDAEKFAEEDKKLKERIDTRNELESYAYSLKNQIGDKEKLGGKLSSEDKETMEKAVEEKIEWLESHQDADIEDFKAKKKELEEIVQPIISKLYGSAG
From the text: Biotin-labeled TR-CTPs and CTPs were synthesized (Biotools Co., Ltd, Taiwan) to evaluate kinetics of binding to GRP78 by surface plasmon resonance. TR-CTPs and CTPs were extended by five amino acids (GGGGS; SEQ ID NO: 9) at their N-termini. The N-termini were labeled with a single biotin molecule per TR-CTP/CTP through an aminohexanoic acid linkage.
Also biotin labeled were two negative control peptides, in which the L-Leu residues within the sequences of F4P6-TR-CTP and F4P13-TR-CTP were replaced with D-Leu residues (dF4P6 and dF4P13, respectively).
(§1) Streptavidin was immobilized to a sensor chip (CMS; GE Healthcare) having a matrix of carboxymethylated dextran covalently attached to a gold surface using a standard amine-coupling method according to established procedures (GE Healthcare). The biotin-labeled TR-CTPs were immobilized on the chip by flowing them over the chip at a flow rate of 5 μl/min using HBS-P+ (GE Healthcare) as the running buffer.
(§2) Sensor chips were regenerated by washing the chip surface for 30 s with glycine buffer (10 mM; pH 11.5). Chips were reused after two chip regeneration cycles followed by a 120 s wash with running buffer.

GRP78-PBD [2] = target: T1, GRP78-PBD (Homo sapiens, UniProt P11021); assay: Surface plasmon resonance, GRP78-PBD binding to chip-bound C-terminal biotin-labeled CTPs/TR-CTPs; conditions: C-terminal GGGGSK extension, biotin on C-terminal lysine; for Kd: read-out: Dissociation constant KD
T1 sequence (P11021 421-639): as above
Protocol: as §1, §2
The P13-series peptides described above in Example 1 were also biotin labeled after extending them at their C-termini with the sequence GGGGSK (SEQ ID NO: 10). Biotin was conjugated to the C-terminal lysine residue using standard techniques. Binding affinities of GRP78-PBD for the sensor chip-bound peptides were determined as described above in Example 2.

[3] = system: N87 gastric cancer target cells; assay: PBMC-mediated cell killing, xCELLigence RTCA, N87; format: cell-based; conditions: 12.5 nM antibody, effector-to-target ratio 10:1, 90 h incubation
Protocol: (§3) The ability of bispecific antibody-like construct F4P6-BsAb to induce cell killing by peripheral blood mononuclear cells (PBMC) was tested on TOV21G ovarian cancer target cells and N87 gastric cancer target cells.
(§4) Target cells were seeded at 2×10^4 cells per well of a 96-well electronic microtiter plate (“E-plate”; ACEA Biosciences, Inc.) and allowed to adhere for 2 h. PBMC effector cells, PBMC effector cells plus F4P6-BsAb, and PBMC effector cells plus Ctrl-BsAb that lacks the […] sequence were added to reach a final effector-to-target ratio of 10:1. The concentration of F4P6-BsAb and Ctrl-BsAb was 12.5 nM. Data was gathered and quantified using an xCELLigence Real-Time Cell Analysis system (“RTCA”; ACEA Biosciences, Inc.) as directed by the manufacturer.

GRP78-PBD [4] = target: T1, GRP78-PBD; assay: Surface plasmon resonance, GRP78-PBD binding to F4P6-BsAb amine-coupled to sensor chip; conditions: F4P6-BsAb directly coupled to sensor chip by amine-coupling
Protocol: as §1, §2
Following expression and purification of F4P6-BsAb, the kinetics of GRP78-PDB binding to it was evaluated by surface plasmon resonance as described in Example 1 above, differing in that the F4P6-BsAb was directly coupled to the CMS sensor chip by amine-coupling.

[5] = system: TOV21G ovarian cancer target cells; assay: PBMC-mediated cell killing, xCELLigence RTCA, TOV21G; format: cell-based; conditions: 12.5 nM antibody, effector-to-target ratio 10:1, 40 h incubation
Protocol: as §3, §4

| Molecule | Association rate Kon [1] | Dissociation rate Koff [1] | Kd [1] [nM] | Association rate Kon (GRP78-PBD [2]) | Dissociation rate Koff (GRP78-PBD [2]) | Kd (GRP78-PBD [2]) [nM] | PBMC mediated lysis of N87 cells [3] [%] | Kd (GRP78-PBD [4]) [nM] | Koff value (GRP78-PBD [4]) | PBMC mediated lysis of TOV21G cells [5] [%] |
| --- | --- | --- | --- | --- | --- | --- | --- | --- | --- | --- |
| RLLDTNRPFLPY [P6-CTP, reference compound] | 1.5 × 10^3 M^−1S^−1 | 3.0×10^−3 S^−1 | 1900 | – | – | – | – | – | – | – |
| RLLDTNRPFLFY [P13-CTP, reference compound] | 1.2 × 10^3 M^−1S^−1 | 3.4×10^−3 S^−1 | – | 9.7 × 10^2 M^−1S^−1 | 2.0 × 10^−3 S^−1 | 2700 | – | – | – | – |
| RPFLFPFLFY [F4P13-TR-CTP] | 7.9 × 10^2 M^−1S^−1 | 1.7×10^−3 S^−1 | 2100 | 1.8 × 10^3 M^−1S^−1 | 1.2 × 10^−3 S^−1 | 660 | – | – | – | – |
| RPFLFPFLFYRPFLFPFLFY [F5P13-TR-CTP] | 1.9 × 10^3 M^−1S^−1 | 1.2×10^−3 S^−1 | 610 | – | – | – | – | – | – | – |
| RPFLPFLPY [F4P6-TR-CTP] | 2.3 × 10^3 M^−1S^−1 | 2.8×10^−3 S^−1 | 1200 | – | – | – | – | – | – | – |
| RPFLPFLPYRPFLPFLPY [F5P6-TR-CTP] | 8.9 × 10^2 M^−1S^−1 | 9.1×10^−4 S^−1 | 1000 | – | – | – | – | – | – | – |
| B1 | – | – | – | – | – | – | 15 | 1100 | 9.4×10^−4 S^−1 | 22 |
